# Data from paper PMC6942878 (Analytical biochemistry, 2019).
# Biological target: murine double minute 2 (MDM2) (Homo sapiens, UniProt Q00987)
# Assay: biochemical
# Assay type: binding
# Chain of murine double minute 2 (MDM2) (Q00987 3-155): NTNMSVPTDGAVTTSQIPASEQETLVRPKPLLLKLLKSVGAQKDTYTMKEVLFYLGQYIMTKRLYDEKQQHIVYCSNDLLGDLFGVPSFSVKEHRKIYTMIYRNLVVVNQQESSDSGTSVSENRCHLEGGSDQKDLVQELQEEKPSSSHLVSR
row,IC50,Structure (SMILES)
1,367 nM,CN1CCCC(n2nc(Cc3ccc(Cl)cc3)c3ccccc3c2=O)CC1 (centres unmarked) [azelastine]
2,206 nM,CC(C)COCC(CN(Cc1ccccc1)c1ccccc1)N1CCCC1 (centres unmarked) [bepridil]
